Legend:
[1] = molecular target: T1, Receptor-type tyrosine-protein phosphatase C (Homo sapiens, UniProt P08575); parameters: species or system Escherichia coli;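 further: inhibition of CD45 enzyme activity measured using DiFMUP as substrate; in other assays of this panel Not Active means under 50% inhibition at 10 µM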
T1 sequence (P08575 whole entry): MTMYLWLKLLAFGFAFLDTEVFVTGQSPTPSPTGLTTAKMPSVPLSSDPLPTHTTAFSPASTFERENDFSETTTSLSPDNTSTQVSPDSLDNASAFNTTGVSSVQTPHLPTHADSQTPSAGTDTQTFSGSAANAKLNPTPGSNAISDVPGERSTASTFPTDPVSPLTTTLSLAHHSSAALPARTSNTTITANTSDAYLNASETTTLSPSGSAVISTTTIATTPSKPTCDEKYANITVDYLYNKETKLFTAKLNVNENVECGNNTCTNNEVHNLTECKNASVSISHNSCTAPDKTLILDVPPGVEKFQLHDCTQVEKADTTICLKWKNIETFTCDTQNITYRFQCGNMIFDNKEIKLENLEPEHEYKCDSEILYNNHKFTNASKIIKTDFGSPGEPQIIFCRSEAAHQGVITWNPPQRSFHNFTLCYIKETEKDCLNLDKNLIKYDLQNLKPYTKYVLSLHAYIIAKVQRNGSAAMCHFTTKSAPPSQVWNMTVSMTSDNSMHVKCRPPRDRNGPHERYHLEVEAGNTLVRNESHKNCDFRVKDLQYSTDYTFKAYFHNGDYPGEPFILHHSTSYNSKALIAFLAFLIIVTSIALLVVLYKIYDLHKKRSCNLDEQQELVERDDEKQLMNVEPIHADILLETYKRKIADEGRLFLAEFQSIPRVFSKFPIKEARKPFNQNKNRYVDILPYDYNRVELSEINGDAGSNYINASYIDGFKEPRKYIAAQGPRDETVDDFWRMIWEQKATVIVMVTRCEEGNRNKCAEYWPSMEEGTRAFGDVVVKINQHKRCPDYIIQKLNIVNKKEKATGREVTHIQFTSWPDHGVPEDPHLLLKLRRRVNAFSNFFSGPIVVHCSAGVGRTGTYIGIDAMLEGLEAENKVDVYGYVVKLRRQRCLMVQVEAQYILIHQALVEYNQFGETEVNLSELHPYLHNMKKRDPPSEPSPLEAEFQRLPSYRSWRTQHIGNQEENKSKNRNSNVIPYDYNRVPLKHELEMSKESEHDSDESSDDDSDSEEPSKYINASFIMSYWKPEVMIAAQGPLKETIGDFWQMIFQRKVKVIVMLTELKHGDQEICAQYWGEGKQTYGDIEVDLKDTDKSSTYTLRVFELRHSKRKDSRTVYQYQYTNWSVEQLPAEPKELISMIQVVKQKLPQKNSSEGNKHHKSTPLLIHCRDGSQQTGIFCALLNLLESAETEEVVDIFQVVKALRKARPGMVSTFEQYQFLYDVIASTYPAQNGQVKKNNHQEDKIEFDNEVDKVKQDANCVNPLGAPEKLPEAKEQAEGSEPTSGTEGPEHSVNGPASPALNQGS

[2] = molecular target: Nitric oxide synthase 1 (Rattus norvegicus, UniProt P29476); assay type: tissue-based, Cerebellum; further: in other assays of this panel Not Active means under 50% inhibition at 10 µM
[3] = molecular target: T2, Leukotriene C4 synthase (Cavia porcellus, UniProt A6XA80); assay type: tissue-based, Lung;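 further: enzyme inhibition assay of leukotriene C4 synthase, using LTA4 as the substrate; in other assays of this panel Not Active means under 50% inhibition at 10 µM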
T2 sequence (A6XA80 whole entry): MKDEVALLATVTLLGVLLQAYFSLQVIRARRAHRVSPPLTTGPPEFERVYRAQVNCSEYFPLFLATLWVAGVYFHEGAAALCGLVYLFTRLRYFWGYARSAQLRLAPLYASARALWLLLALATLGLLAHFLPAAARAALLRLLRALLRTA

[4] = molecular target: T3, Estrogen receptor (Homo sapiens, UniProt P03372); details: sf9; further: in other assays of this panel Not Active means under 50% inhibition at 10 µM
T3 sequence (P03372 whole entry): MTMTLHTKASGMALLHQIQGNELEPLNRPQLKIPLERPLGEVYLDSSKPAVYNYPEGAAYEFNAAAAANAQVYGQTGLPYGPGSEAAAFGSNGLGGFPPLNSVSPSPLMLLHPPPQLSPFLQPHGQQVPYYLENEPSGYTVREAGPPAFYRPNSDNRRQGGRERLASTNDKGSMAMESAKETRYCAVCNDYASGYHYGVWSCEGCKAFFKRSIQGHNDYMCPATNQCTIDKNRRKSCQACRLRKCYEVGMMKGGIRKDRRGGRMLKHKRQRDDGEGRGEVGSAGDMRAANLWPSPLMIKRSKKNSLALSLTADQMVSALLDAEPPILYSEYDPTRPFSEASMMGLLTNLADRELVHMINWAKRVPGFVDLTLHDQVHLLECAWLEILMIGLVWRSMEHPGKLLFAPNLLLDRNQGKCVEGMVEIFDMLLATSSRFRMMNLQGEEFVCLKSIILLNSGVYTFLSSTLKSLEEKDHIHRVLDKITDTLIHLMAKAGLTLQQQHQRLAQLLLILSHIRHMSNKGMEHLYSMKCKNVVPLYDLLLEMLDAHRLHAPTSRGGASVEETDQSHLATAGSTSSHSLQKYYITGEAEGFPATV

[5] = DRUGMATRIX: Sodium/nucleoside co-transporter radioligand binding (ligand: nitrobenzylthioinosine); assay type: cell membranes, Cavia porcellus, Dunkin-Hartley, Cerebral cortex, Membrane; details: Not Active = under 50% inhibition at 10 µM
[6] = molecular target: Cytochrome P450 2C19 (Homo sapiens, UniProt P33261); details: bti-tn-5b1-4; further: in other assays of this panel Not Active means under 50% inhibition at 10 µM
[7] = molecular target: T4, Progesterone receptor (Bos taurus, UniProt Q690N0); test: DRUGMATRIX: Progesterone radioligand binding (ligand: [3H] R-5020); assay type: tissue-based, Uterus; details: Not Active = under 50% inhibition at 10 µM
T4 sequence (Q690N0 whole entry): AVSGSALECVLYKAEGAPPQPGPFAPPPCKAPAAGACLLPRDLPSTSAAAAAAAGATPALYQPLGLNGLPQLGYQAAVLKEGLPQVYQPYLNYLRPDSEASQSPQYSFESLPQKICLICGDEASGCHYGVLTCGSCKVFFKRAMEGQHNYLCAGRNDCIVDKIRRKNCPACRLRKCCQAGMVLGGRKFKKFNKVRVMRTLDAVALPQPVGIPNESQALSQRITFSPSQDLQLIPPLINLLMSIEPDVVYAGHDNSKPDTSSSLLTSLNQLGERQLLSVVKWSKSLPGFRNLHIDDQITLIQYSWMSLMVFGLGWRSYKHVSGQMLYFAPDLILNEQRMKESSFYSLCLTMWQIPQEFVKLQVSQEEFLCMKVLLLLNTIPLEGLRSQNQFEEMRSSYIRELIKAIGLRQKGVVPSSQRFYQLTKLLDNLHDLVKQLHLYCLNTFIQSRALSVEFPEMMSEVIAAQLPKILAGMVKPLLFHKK

Sequence of Cytochrome P450 2C19 (P33261 whole entry): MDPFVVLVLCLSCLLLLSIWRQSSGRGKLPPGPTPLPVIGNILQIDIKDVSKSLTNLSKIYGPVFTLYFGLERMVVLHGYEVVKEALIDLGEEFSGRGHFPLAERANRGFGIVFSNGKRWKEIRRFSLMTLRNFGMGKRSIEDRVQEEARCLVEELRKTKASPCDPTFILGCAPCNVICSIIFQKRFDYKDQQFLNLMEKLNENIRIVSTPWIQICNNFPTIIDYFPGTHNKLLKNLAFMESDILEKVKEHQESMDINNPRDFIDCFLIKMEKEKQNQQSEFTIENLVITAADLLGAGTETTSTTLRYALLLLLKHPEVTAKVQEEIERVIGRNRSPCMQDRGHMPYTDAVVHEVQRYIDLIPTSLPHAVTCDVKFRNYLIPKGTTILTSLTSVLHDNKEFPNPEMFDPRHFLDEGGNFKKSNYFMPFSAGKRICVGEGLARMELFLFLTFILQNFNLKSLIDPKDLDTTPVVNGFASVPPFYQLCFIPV
Sequence of Nitric oxide synthase 1 (P29476 whole entry): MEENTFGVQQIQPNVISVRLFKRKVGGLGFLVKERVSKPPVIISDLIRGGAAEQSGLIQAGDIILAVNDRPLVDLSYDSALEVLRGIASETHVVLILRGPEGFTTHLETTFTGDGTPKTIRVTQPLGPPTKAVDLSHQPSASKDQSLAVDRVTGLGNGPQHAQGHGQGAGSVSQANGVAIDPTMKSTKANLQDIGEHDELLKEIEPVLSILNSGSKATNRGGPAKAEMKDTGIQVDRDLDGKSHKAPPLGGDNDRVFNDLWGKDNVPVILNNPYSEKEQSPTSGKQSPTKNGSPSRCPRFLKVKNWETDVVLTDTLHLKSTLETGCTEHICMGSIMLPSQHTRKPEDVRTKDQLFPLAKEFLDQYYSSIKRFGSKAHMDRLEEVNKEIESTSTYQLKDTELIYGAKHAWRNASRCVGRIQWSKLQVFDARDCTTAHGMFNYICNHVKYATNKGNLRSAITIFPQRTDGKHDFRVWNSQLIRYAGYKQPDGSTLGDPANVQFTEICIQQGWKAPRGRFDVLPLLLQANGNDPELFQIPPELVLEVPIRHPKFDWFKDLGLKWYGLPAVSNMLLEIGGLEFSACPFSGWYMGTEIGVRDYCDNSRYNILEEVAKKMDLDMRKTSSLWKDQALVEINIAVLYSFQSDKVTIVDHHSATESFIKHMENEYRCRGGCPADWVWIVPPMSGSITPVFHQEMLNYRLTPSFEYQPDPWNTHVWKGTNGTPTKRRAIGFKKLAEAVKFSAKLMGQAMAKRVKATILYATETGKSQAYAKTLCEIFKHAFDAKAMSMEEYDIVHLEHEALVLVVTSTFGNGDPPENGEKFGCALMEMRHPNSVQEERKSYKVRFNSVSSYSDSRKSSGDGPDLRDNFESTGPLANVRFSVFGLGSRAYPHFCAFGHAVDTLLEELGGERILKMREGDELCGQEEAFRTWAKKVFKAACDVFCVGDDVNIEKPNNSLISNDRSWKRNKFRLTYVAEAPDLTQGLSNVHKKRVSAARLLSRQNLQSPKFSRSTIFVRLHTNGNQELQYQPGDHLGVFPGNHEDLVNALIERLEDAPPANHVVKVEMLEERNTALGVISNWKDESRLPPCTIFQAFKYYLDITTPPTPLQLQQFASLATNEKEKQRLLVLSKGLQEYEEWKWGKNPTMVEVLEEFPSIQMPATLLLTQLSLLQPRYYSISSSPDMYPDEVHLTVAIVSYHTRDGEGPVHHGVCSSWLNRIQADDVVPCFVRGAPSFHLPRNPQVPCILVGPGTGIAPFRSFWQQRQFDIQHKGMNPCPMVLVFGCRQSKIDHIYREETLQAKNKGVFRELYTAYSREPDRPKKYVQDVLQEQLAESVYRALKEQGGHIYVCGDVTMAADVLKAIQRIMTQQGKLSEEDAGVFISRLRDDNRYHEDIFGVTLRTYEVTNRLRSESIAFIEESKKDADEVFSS

O=S(=O)([O-])CCS.[Na+] [MESNA]
Not Active: IC50 [1] | IC50 [2] | IC50 [3] | IC50 [4] | IC50 [5] | Ki [5] | IC50 [6] | Ki [6] | IC50 [7]

O=C(O)Cc1ccccc1Nc1c(Cl)cccc1Cl [DICLOFENAC]
Not Active: IC50 [1] | IC50 [2] | IC50 [3] | IC50 [4] | IC50 [5] | Ki [5] | IC50 [6] | Ki [6] | IC50 [7]

CCC1=C[C@@H]2CN(C1)Cc1c([nH]c3ccccc13)[C@@](C(=O)OC)(c1cc3c(cc1OC)N(C)[C@H]1[C@@](O)(C(=O)OC)[C@H](OC(C)=O)[C@]4(CC)C=CCN5CC[C@]31[C@@H]54)C2 [VINORELBINE]
Not Active: IC50 [1] | IC50 [2] | IC50 [3] | IC50 [4] | IC50 [5] | Ki [5] | IC50 [6] | Ki [6] | IC50 [7]

CC(C)Cc1ccc(C(C)C(=O)O)cc1 (stereo not given) [IBUPROFEN]
Not Active: IC50 [1] | IC50 [2] | IC50 [3] | IC50 [4] | IC50 [5] | Ki [5] | IC50 [6] | Ki [6] | IC50 [7]

CCCCN1CCCCC1C(=O)Nc1c(C)cccc1C.Cl (stereo not given) [BUPIVACAINE HYDROCHLORIDE]
Not Active: IC50 [1] | IC50 [2] | IC50 [3] | IC50 [4] | IC50 [5] | Ki [5] | IC50 [6] | Ki [6] | IC50 [7]

— ChEMBL document CHEMBL1909046, “DrugMatrix in vitro pharmacology data”
